The text below walks through data of PMC8137473, “Preclinical trial of a MAP4K4 inhibitor to reduce infarct size in the pig: does cardioprotection in human stem cell-derived myocytes predict success in large mammals?” (Basic Research in Cardiology, 2021).

Structures are written as SMILES.

For assay [1], the system named is heart-type fatty acid binding protein (hFABP). The assay is described as follows: efficacy study: plasma hFABP release (ELISA). In kind it is in vivo, swine. As to the method:
Next, an efficacy study was performed, in adherence to published guidelines for rigor and reproducibility, to evaluate the postulated benefit of DMX-10001 in a large-mammal model of MI. Briefly, 36 closed-chest swine (41 ± 2 kg) were subjected to regional ischemia by occluding the left anterior descending coronary artery (LAD) distal to the first diagonal branch for 60 min, followed by 24 h of reperfusion. Treatment with DMX-10001 (60 mg/kg/h for 0.5 h, followed by 17 mg/kg/h for 23.5 h) versus the vehicle was initiated 20 min prior to reperfusion and continued for 1 day. After 2 h of reperfusion, animals were allowed to recover from anesthesia. At 24 h of reperfusion, the infarct area (IA), area of no-reflow (NR), and area at ischemic risk (AAR) were determined. […] Heart-type fatty acid binding protein (hFABP) release was measured, as a biomarker that correlates with IS and NR in swine at least as well as cardiac troponin I [30]. […] Levels of DMX-10001 and DMX-5804 were determined by liquid chromatography–mass spectrometry (Pharmidex, London, UK). Porcine hFABP was analyzed as described: plasma samples were thawed on ice, diluted 10 × using the standard diluent provided with the kit, and analyzed by enzyme-linked immunosorbent assays according to the manufacturer’s instructions (Life Diagnostics, West Chester, PA). […]
(In general: ELISA stands for enzyme-linked immunosorbent assay.)

A further assay concerns porcine model of MI. Kind of assay: efficacy study, LAD occlusion 60 min / reperfusion 24 h: infarct size, no-reflow, area at risk. In kind it is in vivo, swine. On the procedure: Next, an efficacy study was performed, in adherence to published guidelines for rigor and reproducibility, to evaluate the postulated benefit of DMX-10001 in a large-mammal model of MI. Briefly, 36 closed-chest swine (41 ± 2 kg) were subjected to regional ischemia by occluding the left anterior descending coronary artery (LAD) distal to the first diagonal branch for 60 min, followed by 24 h of reperfusion. Treatment with DMX-10001 (60 mg/kg/h for 0.5 h, followed by 17 mg/kg/h for 23.5 h) versus the vehicle was initiated 20 min prior to reperfusion and continued for 1 day. After 2 h of reperfusion, animals were allowed to recover from anesthesia. At 24 h of reperfusion, the infarct area (IA), area of no-reflow (NR), and area at ischemic risk (AAR) were determined. Transthoracic short-axis B-mode echocardiograms and measurements of LV pressure and its first derivative (LVdP/dt) were obtained at baseline and at 24 h of reperfusion. LV pressure–volume measurements were obtained at 24 h of reperfusion. Heart-type fatty acid binding protein (hFABP) release was measured, as a biomarker that correlates with IS and NR in swine at least as well as cardiac troponin I [30].
The LAD was catheterized with a standard clinical guiding catheter (JL3.5, 6F, Medtronic, Minneapolis, MN), and quantitative coronary angiography (CAAS, PIE Medical, Maastricht, The Netherlands) was performed following 2 mg isosorbidedinitrate (Cedocard, Nycomed, Hoofddorp, The Netherlands) and using iodixanol as contrast agent (Visipaque™, GE Healthcare BV, Eindhoven, The Netherlands). Then, an over-the-wire coronary angioplasty balloon (Sprinter OTW, 2–3 mm × 6 mm, Medtronic, Minneapolis, MN) on a standard guide wire (0.014″, 180 cm, ASAHI SION blue, ASAHI Intecc co Ltd, Aichi, Japan) was carefully positioned under fluoroscopic guidance distal to the first diagonal branch. Following balloon inflation, total coronary occlusion was confirmed by angiography (at baseline and at 58 min of occlusion) and by ECG changes. Animals that developed VF during the protocol were defibrillated within 25 ± 10 s. After 1 h of occlusion, the coronary balloon was deflated to establish reperfusion, which was angiographically confirmed to ensure an adequate coronary blood flow to the entire LAD perfusion territory. Heart rate, aortic blood pressure, and ECG were monitored until 2 h of reperfusion.
Twenty min before the onset of reperfusion, an initial rapid administration was started (30 min infusion, 60 mg/kg/h, Alaris CC, Cardinal Health, Role, Switzerland), followed after 10 min of reperfusion by a lower sustained dose (23.5 h infusion, 17 mg/kg/h, Myfuser, CANOX medical Device Srl, Capurso, Italy). The dosing regimen was determined by iterative computer modeling (XenoGesis Ltd, Alderley Park, UK) (Fig. 1b), based on prior dose-finding studies in pigs (data not shown).
After completing the post-infarct LV functional measurements on day two, the LAD was again catheterized, as before. The over-the-wire coronary angioplasty balloon and guide wire were positioned under fluoroscopic guidance at the same position, using anatomic landmarks (distance from sidebranches) visualized by coronary angiography. Through the lumen of the balloon, 5 ml of 4% (w/v) thioflavin-S solution (Sigma, Zwijndrecht, The Netherlands) were injected, allowing the area of no-reflow within the AAR to be measured later histologically. The balloon was re-inflated to re-occlude the LAD and a sternotomy was performed. Next, a bolus of 40 ml of a 15% (w/v) Evans Blue solution was injected into the left atrium for negative staining of the AAR. To facilitate excision, the heart was arrested via induction of VF by gently touching the LV epicardium with a 9 V battery. The LV was isolated and sectioned into 5 transverse slices. The AAR and area of no-reflow (NR), visualized using UV light, were quantified in all sections. […]

Regarding `COCCOc1ccc(-c2cn(-c3ccccc3)c3ncn(COP(=O)(O)O)c(=O)c23)cc1` [DMX-10001], the “plasma level of hFABP” value in assay [1] (60 min of reperfusion) turned out to be 120 ± 19 ng/mL. For the same compound, the “plasma level of hFABP” value in assay [1] (baseline) was determined as 8 ± 2 ng/mL. Besides, the IS/AAR in the assay with porcine model of MI (excluding one statistical outlier, n = 11) worked out at 82.1 ± 8.6%. Moreover, in the assay on porcine model of MI (excluding one statistical outlier, P = 0.0562), the “difference in IS/AAR vs the vehicle control” value was found to be 7%. In addition, in the assay on porcine model of MI (full cohort), the “effect on NR, NR/AAR or NR/IS” value is “no significant effect”. In the assay on porcine model of MI (full cohort, n = 12), the IS/AAR stood at 76.3 ± 21.6%, the “extent of infarction (IS)” value came out at 18.2 ± 5.8 g and the “extent of infarction (IS) as % of LV mass” value came to 17.2 ± 5.7%. For the same compound, in the assay with porcine model of MI (full cohort, n = 12 per group), the “reduction of the extent of infarction in grams or % of LV mass vs vehicle” value stood at 27%. The “reduction in mean IS/AAR vs vehicle” value with porcine model of MI (full cohort, not significant (P = 0.0817)) is 13%. Besides, the “IS or no-reflow corrected for the area at ischemic risk” value with porcine model of MI (in vivo) is listed as “No significant reduction”. The “ANCOVA: slopes of IS and NR as a function of AAR, NR as a function of IS” value in the assay on porcine model of MI (n = 11) was “No significant differences”.
